Assay results: ChEMBL document CHEMBL5154755, “Discovery of Novel Indazoles as Potent and Selective PI3Kδ Inhibitors with High Efficacy for Treatment of Hepatocellular Carcinoma” (J Med Chem, 2022)
pIC50: −log10 of the molar value. Calls of active or inactive are those of the source. No cut-off for these calls is given here.

What follows are compounds tested on Hep 3B2 (assay: cells). Settings: Homo sapiens, Hep3B, 72 h, read-out: INH.

Row | SMILES | inhibition at 10 µM
1 | Cc1ccc2c(c1)c([C@H](C)Nc1ncnc3[nH]cnc13)nn2-c1cccnc1 | 8%
2 | CC(C)[C@H](Nc1ncnc2[nH]cnc12)c1nn(-c2cccnc2)c2cc(F)ccc12 | 4%
3 | C[C@H](Nc1ncnc2[nH]cnc12)c1nn(-c2cccnc2)c2ccccc12 | 21%
4 | C[C@H](Nc1nc(N)nc(N)c1C#N)c1nn(-c2cccnc2)c2cc(C(F)(F)F)ccc12 | 69%
5 | CC[C@H](Nc1ncnc2[nH]cnc12)c1nc2cccc(F)c2c(=O)n1-c1ccccc1 [IDELALISIB] | 21%
6 | C[C@H](Nc1nc(N)nc(N)c1C#N)c1nn(-c2cccnc2)c2ccccc12 | 20%
7 | CC[C@H](Nc1ncnc2[nH]cnc12)c1nn(-c2cccnc2)c2cc(F)ccc12 | 4%

Each compound was assayed on Bel-7402 (assay: Induction of apoptosis in human Bel-7402 cells assessed as increase in apoptotic cells at 50 uM for 24 hrs by TUNEL staining method). Settings: not given.
Type: functional, cell-based

Row | SMILES | Activity
8 | CC[C@H](Nc1ncnc2[nH]cnc12)c1nc2cccc(F)c2c(=O)n1-c1ccccc1 [IDELALISIB] | Active

What follows are compounds tested against T1, Phosphatidylinositol 4,5-bisphosphate 3-kinase catalytic subunit delta isoform (Homo sapiens, UniProt O00329) (assay: Inhibition of PI3Kdelta (unknown origin) using PIP2 as substrate incubated for 1 hr in presence of ATP by ADP-Glo assay). Settings: not given.
T1 sequence (O00329 whole entry): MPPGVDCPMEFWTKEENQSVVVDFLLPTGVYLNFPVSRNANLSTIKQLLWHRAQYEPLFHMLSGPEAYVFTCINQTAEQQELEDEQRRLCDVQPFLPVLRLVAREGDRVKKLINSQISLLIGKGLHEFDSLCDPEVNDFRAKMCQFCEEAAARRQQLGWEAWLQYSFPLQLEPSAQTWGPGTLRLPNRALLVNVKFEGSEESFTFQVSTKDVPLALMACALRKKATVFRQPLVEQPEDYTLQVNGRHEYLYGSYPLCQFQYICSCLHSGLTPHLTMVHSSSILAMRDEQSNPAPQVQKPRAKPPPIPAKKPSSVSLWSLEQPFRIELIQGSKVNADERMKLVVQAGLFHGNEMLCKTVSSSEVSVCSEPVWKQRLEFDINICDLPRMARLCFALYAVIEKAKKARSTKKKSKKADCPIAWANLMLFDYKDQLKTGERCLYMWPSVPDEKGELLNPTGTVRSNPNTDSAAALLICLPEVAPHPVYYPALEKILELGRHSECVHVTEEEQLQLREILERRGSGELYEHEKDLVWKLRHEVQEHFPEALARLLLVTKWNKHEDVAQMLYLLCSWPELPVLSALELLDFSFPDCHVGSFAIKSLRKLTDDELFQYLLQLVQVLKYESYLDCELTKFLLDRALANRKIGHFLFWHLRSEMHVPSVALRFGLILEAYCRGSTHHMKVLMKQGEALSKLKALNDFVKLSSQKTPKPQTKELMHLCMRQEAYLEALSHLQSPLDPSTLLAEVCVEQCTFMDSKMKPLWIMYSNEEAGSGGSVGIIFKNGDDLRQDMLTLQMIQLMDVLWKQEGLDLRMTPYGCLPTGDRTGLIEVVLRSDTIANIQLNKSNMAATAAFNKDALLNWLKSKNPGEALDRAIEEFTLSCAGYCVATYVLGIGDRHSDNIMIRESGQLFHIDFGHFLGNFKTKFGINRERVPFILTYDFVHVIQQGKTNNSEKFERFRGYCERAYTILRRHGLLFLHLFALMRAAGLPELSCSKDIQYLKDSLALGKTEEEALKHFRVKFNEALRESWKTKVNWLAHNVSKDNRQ

Row | pIC50 | SMILES
9 | 6.56 | Cc1ccc2c(c1)c([C@H](C)Nc1ncnc3[nH]cnc13)nn2-c1cccnc1
10 | 7.14 | CC(C)[C@H](Nc1ncnc2[nH]cnc12)c1nn(-c2cccnc2)c2cc(F)ccc12
11 | 7.42 | C[C@H](Nc1ncnc2[nH]cnc12)c1nn(-c2cccnc2)c2ccccc12
12 | 6.54 | C[C@H](Nc1nc(N)nc(N)c1C#N)c1nn(-c2cccnc2)c2cc(C(F)(F)F)ccc12
13 | 8.40 | C[C@H](Nc1nc(N)nc(N)c1C#N)c1nn(-c2cccnc2)c2ccccc12
14 | 7.23 | CC[C@H](Nc1ncnc2[nH]cnc12)c1nn(-c2cccnc2)c2cc(F)ccc12

Each compound was assayed on Hep 3B2 (assay: Antiproliferative activity against human Hep3B cells assessed as inhibition of cell growth incubated for 72 hrs by SRB assay). Settings: not given.
Type: functional, cell-based

Row | SMILES | pIC50
15 | Cc1ccc2c(c1)c([C@H](C)Nc1ncnc3[nH]cnc13)nn2-c1cccnc1 | < 4.40
16 | CC(C)[C@H](Nc1ncnc2[nH]cnc12)c1nn(-c2cccnc2)c2cc(F)ccc12 | < 4.40
17 | C[C@H](Nc1ncnc2[nH]cnc12)c1nn(-c2cccnc2)c2ccccc12 | 4.44
18 | C[C@H](Nc1nc(N)nc(N)c1C#N)c1nn(-c2cccnc2)c2cc(C(F)(F)F)ccc12 | 5.01
19 | CC[C@H](Nc1ncnc2[nH]cnc12)c1nc2cccc(F)c2c(=O)n1-c1ccccc1 [IDELALISIB] | 4.11
20 | C[C@H](Nc1nc(N)nc(N)c1C#N)c1nn(-c2cccnc2)c2ccccc12 | 4.58
21 | CC[C@H](Nc1ncnc2[nH]cnc12)c1nn(-c2cccnc2)c2cc(F)ccc12 | < 4.40

Each compound was assayed on Bel-7402 (assay: cells). Settings: Homo sapiens, Bel-7402, 72 h, read-out: INH.

Row | SMILES | inhibition at 10 µM
22 | Cc1ccc2c(c1)c([C@H](C)Nc1ncnc3[nH]cnc13)nn2-c1cccnc1 | -10%
23 | CC(C)[C@H](Nc1ncnc2[nH]cnc12)c1nn(-c2cccnc2)c2cc(F)ccc12 | 5%
24 | C[C@H](Nc1ncnc2[nH]cnc12)c1nn(-c2cccnc2)c2ccccc12 | 40%
25 | C[C@H](Nc1nc(N)nc(N)c1C#N)c1nn(-c2cccnc2)c2cc(C(F)(F)F)ccc12 | 60%
26 | CC[C@H](Nc1ncnc2[nH]cnc12)c1nc2cccc(F)c2c(=O)n1-c1ccccc1 [IDELALISIB] | 9%
27 | C[C@H](Nc1nc(N)nc(N)c1C#N)c1nn(-c2cccnc2)c2ccccc12 | 12%
28 | CC[C@H](Nc1ncnc2[nH]cnc12)c1nn(-c2cccnc2)c2cc(F)ccc12 | 12%

What follows are compounds tested on HepG2 (assay: cells). Settings: Homo sapiens, HepG2, 72 h, read-out: INH.

Row | SMILES | inhibition at 10 µM
29 | Cc1ccc2c(c1)c([C@H](C)Nc1ncnc3[nH]cnc13)nn2-c1cccnc1 | 18%
30 | CC(C)[C@H](Nc1ncnc2[nH]cnc12)c1nn(-c2cccnc2)c2cc(F)ccc12 | 16%
31 | C[C@H](Nc1ncnc2[nH]cnc12)c1nn(-c2cccnc2)c2ccccc12 | 62%
32 | C[C@H](Nc1nc(N)nc(N)c1C#N)c1nn(-c2cccnc2)c2cc(C(F)(F)F)ccc12 | 36%
33 | CC[C@H](Nc1ncnc2[nH]cnc12)c1nc2cccc(F)c2c(=O)n1-c1ccccc1 [IDELALISIB] | 20%
34 | C[C@H](Nc1nc(N)nc(N)c1C#N)c1nn(-c2cccnc2)c2ccccc12 | 10%
35 | CC[C@H](Nc1ncnc2[nH]cnc12)c1nn(-c2cccnc2)c2cc(F)ccc12 | 26%

These compounds were tested on Bel-7402 (assay: Antiproliferative activity against human Bel-7402 cells assessed as inhibition of cell growth incubated for 72 hrs by SRB assay). Settings: Bel-7402, 72 h.
Type: functional, cell-based

Row | pIC50 | SMILES
36 | < 4.40 | Cc1ccc2c(c1)c([C@H](C)Nc1ncnc3[nH]cnc13)nn2-c1cccnc1
37 | < 4.40 | CC(C)[C@H](Nc1ncnc2[nH]cnc12)c1nn(-c2cccnc2)c2cc(F)ccc12
38 | 4.95 | C[C@H](Nc1ncnc2[nH]cnc12)c1nn(-c2cccnc2)c2ccccc12
39 | 5.50 | C[C@H](Nc1nc(N)nc(N)c1C#N)c1nn(-c2cccnc2)c2cc(C(F)(F)F)ccc12
40 | 4.18 | CC[C@H](Nc1ncnc2[nH]cnc12)c1nc2cccc(F)c2c(=O)n1-c1ccccc1 [IDELALISIB]
41 | 4.46 | C[C@H](Nc1nc(N)nc(N)c1C#N)c1nn(-c2cccnc2)c2ccccc12
42 | 4.54 | CC[C@H](Nc1ncnc2[nH]cnc12)c1nn(-c2cccnc2)c2cc(F)ccc12

Each compound was assayed on Bel-7402 (assay: animal or person). Settings: Mus musculus, Bel-7402, po, 336 h, read-out: INH.

Row | SMILES | inhibition in vivo at 40 mg/kg
43 | CC[C@H](Nc1ncnc2[nH]cnc12)c1nc2cccc(F)c2c(=O)n1-c1ccccc1 [IDELALISIB] | 44.6%

What follows are compounds tested on HepG2 (assay: cells). Settings: Homo sapiens, HepG2, 72 h.
Description: Antiproliferative activity against human HepG2 cells assessed as inhibition of cell growth incubated for 72 hrs by SRB assay

Row | pIC50 | SMILES
44 | < 4.40 | Cc1ccc2c(c1)c([C@H](C)Nc1ncnc3[nH]cnc13)nn2-c1cccnc1
45 | < 4.40 | CC(C)[C@H](Nc1ncnc2[nH]cnc12)c1nn(-c2cccnc2)c2cc(F)ccc12
46 | 4.69 | C[C@H](Nc1ncnc2[nH]cnc12)c1nn(-c2cccnc2)c2ccccc12
47 | 5.77 | C[C@H](Nc1nc(N)nc(N)c1C#N)c1nn(-c2cccnc2)c2cc(C(F)(F)F)ccc12
48 | 4.05 | CC[C@H](Nc1ncnc2[nH]cnc12)c1nc2cccc(F)c2c(=O)n1-c1ccccc1 [IDELALISIB]
49 | 4.49 | C[C@H](Nc1nc(N)nc(N)c1C#N)c1nn(-c2cccnc2)c2ccccc12
50 | 4.47 | CC[C@H](Nc1ncnc2[nH]cnc12)c1nn(-c2cccnc2)c2cc(F)ccc12
